Data taken from ChEMBL document CHEMBL5365473, “Novel Sulfonylurea-Based NLRP3 Inflammasome Inhibitor for Efficient Treatment of Nonalcoholic Steatohepatitis, Endotoxic Shock, and Colitis” (J Med Chem, 2023).
Activity calls are given as the source filed them. The calls are words filed in the database; no cut-off is given here.

Experiments:
Mus musculus [1] = assay: Antiinflammatory activity against MCD diet-induced NASH C57BL/6 mouse model assessed as reduction in liver fibrosis at 40 mg/kg, po administered via gavage for 5 weeks by Sirius red staining based analysis; format: functional, organism-based
[2] = Toxicity against female ICR mouse assessed as effect on kidney weight at 200 to 500 mg/kg administered via gavage for 12 days; format: organism-based; settings: in vivo, po, 288 h, dose 200-500 mg/kg, time 12 day
[3] = Toxicity against male ICR mouse assessed as effect on heart weight at 200 to 500 mg/kg administered via gavage for 12 days; format: organism-based; settings: in vivo, po, 288 h, dose 200-500 mg/kg, time 12 day
[4] = Clearance in ICR mouse at 5 mg/kg, iv by LC-MS/MS analysis; format: ADME, organism-based; settings: in vivo
[5] = Toxicity against female ICR mouse assessed as effect on plasma creatinine level at 200 to 500 mg/kg administered via gavage for 12 days; format: organism-based; settings: in vivo, po, 288 h, dose 200-500 mg/kg, time 12 day
[6] = Effect on immune cell numbers in MCS diet-fed C57BL/6 mouse assessed as effect on F4/80 expression at 40 mg/kg, po administered via gavage for 5 weeks by immunofluorescence staining based analysis; format: toxicity, organism-based; settings: in vivo, 840 h
[7] = Toxicity against female ICR mouse assessed as effect on brain weight at 200 to 500 mg/kg administered via gavage for 12 days; format: organism-based; settings: in vivo, po, 288 h, dose 200-500 mg/kg, time 12 day
[8] = Toxicity against male ICR mouse assessed as effect on liver weight at 200 to 500 mg/kg administered via gavage for 12 days; format: organism-based; settings: in vivo, po, 288 h, dose 200-500 mg/kg, time 12 day
[9] = Drug uptake in Sprague-Dawley rat adipose tissue at 50 mg/kg, po measured for 24 hrs by LC-MS/MS analysis; format: ADME, organism-based; settings: in vivo
[10] = target: NACHT, LRR and PYD domains-containing protein 3 (Mus musculus) (UniProt Q8R4B8); assay: Inhibition of NLRP3 inflammasome in mouse J774.A1 cells assessed as inhibition of caspase-1 activation primed with LPS for 4.5 hrs followed by incubation with compound for 2.5 hrs and later stimulated with ATP for 30 mins by immunoblot analysis; format: cell-based; settings: dose 3-30 nM, time 3.0 hrs
[11] = AUC (0 to infinity) in ICR mouse at 5 mg/kg, iv by LC-MS/MS analysis; format: ADME, organism-based; parameters: dose 5 mg/kg, route iv; settings: in vivo
Mus musculus [12] = assay: Antiinflammatory activity against MCD diet-induced NASH C57BL/6 mouse model assessed as improvement in liver morphology at 40 mg/kg, po administered via gavage for 5 weeks by H and E staining based analysis; format: functional, organism-based
[13] = Oral bioavailability in ICR mouse at 10 mg/kg by LC-MS/MS analysis; format: ADME, organism-based; settings: in vivo
Mus musculus [14] = assay: Antiinflammatory activity against DSS-induced ulcerative colitis C57BL/6 mouse assessed as reduction in mucosal barrier disruption in colon at 10 mg/kg, ip administered for 9 days and measured on day 10 by H and E staining based analysis; format: functional, organism-based; settings: time 10.0 day
[15] = Half life in ICR mouse at 10 mg/kg, po by LC-MS/MS analysis; format: ADME, organism-based; settings: in vivo
[16] = Tmax in ICR mouse at 10 mg/kg, po by LC-MS/MS analysis; format: ADME, organism-based; settings: in vivo
Mus musculus [17] = assay: Antiinflammatory activity against LPS-induced lethal septic shock C57BL/6 mouse model assessed as effect on TNF-alpha level at 40 mg/kg, ip administered for 1 hr prior to LPS challenge and measured after 2.5 hrs by ELISA; format: functional, organism-based; settings: time 3.5 hrs
[18] = Toxicity against male ICR mouse assessed as effect on brain weight at 200 to 500 mg/kg administered via gavage for 12 days; format: organism-based; settings: in vivo, po, 288 h, dose 200-500 mg/kg, time 12 day
[19] = Toxicity against male ICR mouse assessed as effect on body weight at 200 to 500 mg/kg administered via gavage for 12 days; format: organism-based; settings: in vivo, po, 288 h, dose 200-500 mg/kg, time 12 day
Mus musculus [20] = assay: Antiinflammatory activity against MCD diet-induced NASH C57BL/6 mouse model assessed as protection against MCD diet-induced increase in liver to body weight ratio at 40 mg/kg, po administered via gavage for 5 weeks; format: functional, organism-based
[21] = target: NACHT, LRR and PYD domains-containing protein 3 (Mus musculus) (UniProt Q8R4B8); assay: Inhibition of NLRP3 inflammasome in mouse J774.A1 cells assessed as inhibition of IL-1 beta secretion primed with LPS for 4.5 hrs followed by incubation with compound for 2.5 hrs and later stimulated with ATP for 30 mins by immunoblot analysis; format: cell-based; settings: dose 3-30 nM, time 3.0 hrs
Mus musculus [22] = assay: Antiinflammatory activity against MCD diet-induced NASH C57BL/6 mouse model assessed as improvement in liver morphology at 40 mg/kg, po administered via gavage for 5 weeks by Masson's trichrome staining based analysis; format: functional, organism-based
[23] = Drug uptake in Sprague-Dawley rat lungs at 50 mg/kg, po measured for 24 hrs by LC-MS/MS analysis; format: ADME, organism-based, Lung; settings: in vivo
[24] = Drug uptake in Sprague-Dawley rat liver at 50 mg/kg, po measured for 24 hrs by LC-MS/MS analysis; format: ADME, organism-based; settings: in vivo
[25] = target: NACHT, LRR and PYD domains-containing protein 3 (Homo sapiens) (UniProt Q96P20); assay: Inhibition of NLRP3 inflammasome in PMA-induced differentiated human THP-1 cells assessed as inhibition of IL-1 beta secretion primed with LPS for 4.5 hrs followed by incubation with compound for 2.5 hrs and later stimulated with ATP for 1 hr by immunoblot analysis; format: cell-based; settings: dose 3-30 nM, time 3.5 hrs
Mus musculus [26] = assay: Antiinflammatory activity against DSS-induced ulcerative colitis C57BL/6 mouse assessed as reduction in inflammatory cells infiltration in lamina propria in colon at 10 mg/kg, ip administered for 9 days and measured on day 10 by H and E staining based analysis; format: functional, organism-based; settings: time 10.0 day
[27] = Toxicity against male ICR mouse assessed as effect on ratio of plasma AST to ALT level at 200 to 500 mg/kg administered via gavage for 12 days; format: organism-based; settings: in vivo, po, 288 h, dose 200-500 mg/kg, time 12 day
Mus musculus [28] = assay: Antiinflammatory activity against LPS-induced lethal septic shock C57BL/6 mouse model assessed as increase in animal's survival rate at 20 mg/kg, ip administered for 1 hr prior to LPS challenge and measured for 72 hrs; format: functional; settings: time 73 hrs
[29] = Cmax in ICR mouse at 10 mg/kg, po by LC-MS/MS analysis; format: ADME, organism-based; parameters: dose 10 mg/kg, route po; settings: in vivo
Mus musculus [30] = assay: Antiinflammatory activity against MCD diet-induced NASH C57BL/6 mouse model assessed as improvement in liver morphology at 40 mg/kg, po administered via gavage for 5 weeks by Sirius red staining based analysis; format: functional, organism-based
Mus musculus [31] = assay: Antiinflammatory activity against LPS-induced lethal septic shock C57BL/6 mouse model assessed as increase in animal's survival rate at 40 mg/kg, ip administered for 1 hr prior to LPS challenge and measured for 72 hrs; format: functional; settings: time 73 hrs

NACHT, LRR and PYD domains-containing protein 3 (Mus musculus), sequence (Q8R4B8 whole entry, the tested form may be a part): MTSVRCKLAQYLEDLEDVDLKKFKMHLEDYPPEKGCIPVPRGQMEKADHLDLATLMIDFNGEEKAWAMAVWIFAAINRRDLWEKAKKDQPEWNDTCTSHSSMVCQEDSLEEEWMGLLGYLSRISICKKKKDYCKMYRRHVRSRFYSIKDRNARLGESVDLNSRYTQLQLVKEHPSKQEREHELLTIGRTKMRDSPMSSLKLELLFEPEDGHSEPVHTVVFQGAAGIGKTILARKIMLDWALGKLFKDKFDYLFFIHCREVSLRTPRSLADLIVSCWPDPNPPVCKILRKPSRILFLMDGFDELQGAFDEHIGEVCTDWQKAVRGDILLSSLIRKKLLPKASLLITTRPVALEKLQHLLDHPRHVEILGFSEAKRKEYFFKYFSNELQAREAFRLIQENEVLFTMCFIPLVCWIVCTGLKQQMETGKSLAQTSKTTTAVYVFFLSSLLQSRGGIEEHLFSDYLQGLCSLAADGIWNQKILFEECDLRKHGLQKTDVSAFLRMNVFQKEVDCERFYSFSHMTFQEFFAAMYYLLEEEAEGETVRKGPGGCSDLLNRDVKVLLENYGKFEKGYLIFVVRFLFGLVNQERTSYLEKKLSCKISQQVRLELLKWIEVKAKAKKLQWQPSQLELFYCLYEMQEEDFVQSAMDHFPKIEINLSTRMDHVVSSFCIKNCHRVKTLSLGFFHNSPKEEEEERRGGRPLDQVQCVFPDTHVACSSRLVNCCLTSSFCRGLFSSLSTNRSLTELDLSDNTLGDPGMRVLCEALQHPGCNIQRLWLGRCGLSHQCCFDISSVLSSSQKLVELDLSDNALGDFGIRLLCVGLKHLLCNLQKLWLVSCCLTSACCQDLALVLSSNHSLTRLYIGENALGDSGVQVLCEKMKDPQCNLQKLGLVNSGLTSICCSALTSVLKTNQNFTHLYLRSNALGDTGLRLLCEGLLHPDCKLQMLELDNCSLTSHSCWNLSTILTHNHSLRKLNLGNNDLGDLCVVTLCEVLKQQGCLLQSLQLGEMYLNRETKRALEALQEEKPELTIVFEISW
NACHT, LRR and PYD domains-containing protein 3 (Homo sapiens), sequence (Q96P20 whole entry, the tested form may be a part): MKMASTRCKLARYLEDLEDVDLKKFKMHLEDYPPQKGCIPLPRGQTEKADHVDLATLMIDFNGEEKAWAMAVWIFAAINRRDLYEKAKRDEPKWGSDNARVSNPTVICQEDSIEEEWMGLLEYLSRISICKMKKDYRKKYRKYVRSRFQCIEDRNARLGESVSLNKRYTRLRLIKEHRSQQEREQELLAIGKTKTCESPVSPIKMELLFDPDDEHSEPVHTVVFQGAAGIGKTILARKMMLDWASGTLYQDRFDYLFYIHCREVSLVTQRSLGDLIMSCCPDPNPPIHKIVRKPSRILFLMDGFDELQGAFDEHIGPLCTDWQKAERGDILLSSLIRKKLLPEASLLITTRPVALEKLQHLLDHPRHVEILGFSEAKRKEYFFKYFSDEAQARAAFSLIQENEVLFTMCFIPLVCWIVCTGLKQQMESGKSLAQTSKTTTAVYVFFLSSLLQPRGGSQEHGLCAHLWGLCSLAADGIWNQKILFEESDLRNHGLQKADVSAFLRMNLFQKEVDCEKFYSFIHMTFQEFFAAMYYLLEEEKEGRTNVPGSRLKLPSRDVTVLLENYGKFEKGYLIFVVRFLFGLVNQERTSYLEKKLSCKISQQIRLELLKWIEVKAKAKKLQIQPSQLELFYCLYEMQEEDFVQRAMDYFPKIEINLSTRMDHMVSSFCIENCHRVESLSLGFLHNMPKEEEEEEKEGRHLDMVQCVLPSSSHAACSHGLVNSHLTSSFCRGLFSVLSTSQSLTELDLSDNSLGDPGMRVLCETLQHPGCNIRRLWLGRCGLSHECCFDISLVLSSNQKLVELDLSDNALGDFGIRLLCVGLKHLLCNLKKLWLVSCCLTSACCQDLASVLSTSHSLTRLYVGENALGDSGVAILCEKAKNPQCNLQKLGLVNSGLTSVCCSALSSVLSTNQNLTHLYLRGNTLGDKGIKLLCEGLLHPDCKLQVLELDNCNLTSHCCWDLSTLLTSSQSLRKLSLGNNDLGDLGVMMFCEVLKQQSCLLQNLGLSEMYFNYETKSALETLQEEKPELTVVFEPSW

Q: For CN(C)Cc1ccc(S(=O)(=O)NC(=O)Nc2c3c(cc4c2CCC4)CCC3)cc1, which Activity (Mus musculus [1]) is on record?
A: Active

Q: What about the Activity [2] of the same compound?
A: Non-Toxic

Q: What about the Activity [3] of the same compound?
A: Non-Toxic

Q: And the clearance [4]?
A: 0.647 mL/min/kg

Q: And the Activity [5]?
A: Non-Toxic

Q: And the Activity [6]?
A: Non-Toxic

Q: What about the Activity [7] of the same compound?
A: Non-Toxic

Q: What about the Activity [8] of the same compound?
A: Non-Toxic

Q: And the Drug uptake [9]?
A: Active

Q: And the inhibition [10]?
A: Dose-Dependent Effect

Q: And the AUC(0-inf) [11]?
A: 130 µg·h/mL

Q: What about the Activity (Mus musculus [12]) of the same compound?
A: Active

Q: What about the bioavailability [13] of the same compound?
A: 85.2%

Q: What about the Activity (Mus musculus [14]) of the same compound?
A: Active

Q: And the half-life [15]?
A: 3.5 h

Q: And the Tmax [16]?
A: 0.667 h

Q: What about the Activity (Mus musculus [17]) of the same compound?
A: inactive

Q: What about the Activity [18] of the same compound?
A: Non-Toxic

Q: And the Activity [19]?
A: Non-Toxic

Q: What about the Activity (Mus musculus [20]) of the same compound?
A: Active

Q: And the inhibition [21]?
A: Dose-Dependent Effect

Q: And the Activity (Mus musculus [22])?
A: Active

Q: And the Drug uptake [23]?
A: Active

Q: And the Drug uptake [24]?
A: Active

Q: And the inhibition [25]?
A: Dose-Dependent Effect

Q: What about the Activity (Mus musculus [26]) of the same compound?
A: Active

Q: And the Activity [27]?
A: Non-Toxic

Q: And the survival at 20 mg/kg (Mus musculus [28])?
A: 20%

Q: And the Cmax [29]?
A: 33900 ng/mL

Q: What about the Activity (Mus musculus [30]) of the same compound?
A: Active

Q: And the survival at 40 mg/kg (Mus musculus [31])?
A: 70%
